Entries after “also recorded” stand apart in the source; their conditions may differ.
Columns and labels:
[1] = Water Vapour Sorption isotherm (DVS), hygroscopicity acc. to Ph. Eur.; type: physicochemical; conditions: for Hygroscopicity classification acc. to Ph. Eur. criteria (section 5.11.): based on water uptake difference 40-80% rh; for Water uptake level (Water Vapour Sorption): isotherm 25° C.
Experimental: As used herein, unless stated otherwise, Water Vapour Sorption isotherm measurements are carried out on a DVS-1 or a DVS-Intrinsic system from SMS.

[2] = Miniaturized non-sink dissolution in FaSSIF pH 6.5; type: physicochemical; conditions: for Dissolution levels in FaSSIF pH 6.5: 37° C.; for Dissolution level in FaSSIF: FaSSIF pH 6.5, 37° C.
Experimental: Approx. 10-20 mg of solid sample were weighed into glass vials. 7 ml of respective FaSSIF (pH 6.5) medium (prewarmed to 37° C.) were added and the suspension was shaken at 450 rpm at 37° C. After 5 min, 15 min, 60 min, and 120 min, 1 ml suspension was withdrawn and filtered through a 0.2 µm syringe filter. Clear filtrate was analysed by HPLC after suitable dilution to measure the amount of API dissolved. To get non-sink conditions 1 ml pre warmed FaSSiF solution was added after sample was withdrawn.
The clear solution was collected in HPLC vials, the filtrate further diluted if necessary and finally HPLC analysis was carried out.
HPLC method for ph-dependent solubility & miniaturised non-sink dissolution: • Column: Chromolith RP-18e 100 - 3 mm • Solvent A: water/formic acid (999:1; v/v) • Solvent B: acetonitrile/formic acid (999:1; v/v) • Injection volume: 5 µL • Column temperature: 37° C. • Wavelength detector: 218 nm

[3] = relative humidity range 40-80% rh

| SMILES | Hygroscopicity classification acc. to Ph. Eur. criteria (section 5.11.) [1] | Water uptake level (Water Vapour Sorption) [1, 3] [wt%] | Dissolution level in FaSSIF ([2]; after 15 min) | Dissolution level in FaSSIF ([2]; after 60 min) | Dissolution level in FaSSIF ([2]; after 120 min) | Tendency to undergo hydrate formation upon exposure to elevated RH levels ([1]; up to 90% RH) | other results |
| --- | --- | --- | --- | --- | --- | --- | --- |
| COc1ccc2nc3cc(Cl)ccc3c(Nc3cc(CN4CCCC4)c(O)c(CN4CCCC4)c3)c2n1 [Form I, 4-[(7-chloro-2-methoxybenzo[b][1,5]naphthyridin-10-yl)amino]-2,6-bis(pyrrolidin-1-ylmethyl)phenol] | hygroscopic | 2.4 | approx. 0.56 mg/mL | approx. 0.55 mg/mL | approx. 0.54 mg/mL |  | Dissolution levels in FaSSIF pH 6.5 ([2]; 5 min, listed as Tosylate salt Form I): 547.9 µg/mL; Dissolution levels in FaSSIF pH 6.5 ([2]; 15 min, listed as Tosylate salt Form I): 557.9 µg/mL; Dissolution levels in FaSSIF pH 6.5 ([2]; 60 min, listed as Tosylate salt Form I): 552.8 µg/mL; Dissolution levels in FaSSIF pH 6.5 ([2]; 120 min, listed as Tosylate salt Form I): 537.7 µg/mL |
| COc1ccc2nc3cc(Cl)ccc3c(Nc3cc(CN4CCCC4)c(O)c(CN4CCCC4)c3)c2n1 [Form II, 4-[(7-chloro-2-methoxybenzo[b][1,5]naphthyridin-10-yl)amino]-2,6-bis(pyrrolidin-1-ylmethyl)phenol] | slightly hygroscopic |  | approx. 0.45 mg/mL | approx. 0.44 mg/mL | approx. 0.44 mg/mL |  | Water uptake level (Water Vapour Sorption) ([1]; relative humidity range 40-90% rh): 1.4 wt%; Dissolution levels in FaSSIF pH 6.5 ([2]; 5 min, listed as Besylate salt Form II): 432.8 µg/mL; Dissolution levels in FaSSIF pH 6.5 ([2]; 15 min, listed as Besylate salt Form II): 447.0 µg/mL; Dissolution levels in FaSSIF pH 6.5 ([2]; 60 min, listed as Besylate salt Form II): 440.1 µg/mL; Dissolution levels in FaSSIF pH 6.5 ([2]; 120 min, listed as Besylate salt Form II): 444.5 µg/mL |
| COc1ccc2nc3cc(Cl)ccc3c(Nc3cc(CN4CCCC4)c(O)c(CN4CCCC4)c3)c2n1 [Form III, 4-[(7-chloro-2-methoxybenzo[b][1,5]naphthyridin-10-yl)amino]-2,6-bis(pyrrolidin-1-ylmethyl)phenol] | slightly hygroscopic | 1.5 | approx. 0.46 mg/mL | approx. 0.48 mg/mL | approx. 0.47 mg/mL | no tendency to undergo hydrate formation | Dissolution levels in FaSSIF pH 6.5 ([2]; 5 min, listed as Edisylate salt Form III): 406.7 µg/mL; Dissolution levels in FaSSIF pH 6.5 ([2]; 15 min, listed as Edisylate salt Form III): 462.7 µg/mL; Dissolution levels in FaSSIF pH 6.5 ([2]; 60 min, listed as Edisylate salt Form III): 483.3 µg/mL; Dissolution levels in FaSSIF pH 6.5 ([2]; 120 min, listed as Edisylate salt Form III): 469.7 µg/mL |
| COc1ccc2nc3cc(Cl)ccc3c(Nc3cc(CN4CCCC4)c(O)c(CN4CCCC4)c3)c2n1 [Form V, 4-[(7-chloro-2-methoxybenzo[b][1,5]naphthyridin-10-yl)amino]-2,6-bis(pyrrolidin-1-ylmethyl)phenol] | slightly hygroscopic; also recorded: non-hygroscopic | 0.6 | approx. 0.17 mg/mL | approx. 0.56 mg/mL | approx. 0.82 mg/mL | no tendency to undergo hydrate formation | Dissolution levels in FaSSIF pH 6.5 ([2]; 5 min, listed as Napsylate salt Form V): 95.2 µg/mL; Dissolution levels in FaSSIF pH 6.5 ([2]; 15 min, listed as Napsylate salt Form V): 171.1 µg/mL; Dissolution levels in FaSSIF pH 6.5 ([2]; 60 min, listed as Napsylate salt Form V): 564.1 µg/mL; Dissolution levels in FaSSIF pH 6.5 ([2]; 120 min, listed as Napsylate salt Form V): 817.6 µg/mL |
| COc1ccc2nc3cc(Cl)ccc3c(Nc3cc(CN4CCCC4)c(O)c(CN4CCCC4)c3)c2n1 [Form VII, 4-[(7-chloro-2-methoxybenzo[b][1,5]naphthyridin-10-yl)amino]-2,6-bis(pyrrolidin-1-ylmethyl)phenol] | non-hygroscopic; also recorded: slightly hygroscopic | < 0.1 |  |  |  |  | Tendency to undergo hydrate formation upon exposure to elevated RH levels ([1]; up to 98% RH): no tendency to undergo hydrate formation |

Now from value to compound, other results behind:

| Hygroscopicity classification acc. to Ph. Eur. criteria (section 5.11.) [1] | Water uptake level (Water Vapour Sorption) [1, 3] [wt%] | Dissolution level in FaSSIF ([2]; after 15 min) | Dissolution level in FaSSIF ([2]; after 60 min) | Dissolution level in FaSSIF ([2]; after 120 min) | Tendency to undergo hydrate formation upon exposure to elevated RH levels ([1]; up to 90% RH) | SMILES | other results |
| --- | --- | --- | --- | --- | --- | --- | --- |
| slightly hygroscopic | 0.6 | approx. 0.17 mg/mL | approx. 0.56 mg/mL | approx. 0.82 mg/mL | no tendency to undergo hydrate formation | COc1ccc2nc3cc(Cl)ccc3c(Nc3cc(CN4CCCC4)c(O)c(CN4CCCC4)c3)c2n1 [Form IV, 4-[(7-chloro-2-methoxybenzo[b][1,5]naphthyridin-10-yl)amino]-2,6-bis(pyrrolidin-1-ylmethyl)phenol] | Dissolution levels in FaSSIF pH 6.5 ([2]; 5 min, listed as Napsylate salt Form IV): 116.6 µg/mL; Dissolution levels in FaSSIF pH 6.5 ([2]; 15 min, listed as Napsylate salt Form IV): 209.0 µg/mL; Dissolution levels in FaSSIF pH 6.5 ([2]; 60 min, listed as Napsylate salt Form IV): 488.8 µg/mL; Dissolution levels in FaSSIF pH 6.5 ([2]; 120 min, listed as Napsylate salt Form IV): 630.0 µg/mL |
| non-hygroscopic | < 0.1 |  |  |  |  | COc1ccc2nc3cc(Cl)ccc3c(Nc3cc(CN4CCCC4)c(O)c(CN4CCCC4)c3)c2n1 [Form VI, 4-[(7-chloro-2-methoxybenzo[b][1,5]naphthyridin-10-yl)amino]-2,6-bis(pyrrolidin-1-ylmethyl)phenol] | Tendency to undergo hydrate formation upon exposure to elevated RH levels ([1]; up to 98% RH): no tendency to undergo hydrate formation |
| hygroscopic | > 4.9 | approx. 0.50 mg/mL | approx. 0.50 mg/mL | approx. 0.49 mg/mL |  | COc1ccc2nc3cc(Cl)ccc3c(Nc3cc(CN4CCCC4)c(O)c(CN4CCCC4)c3)c2n1 [Tetraphosphate form, 4-[(7-chloro-2-methoxybenzo[b][1,5]naphthyridin-10-yl)amino]-2,6-bis(pyrrolidin-1-ylmethyl)phenol tetraphosphate, reference compound] | Hygroscopicity classification acc. to Ph. Eur. criteria (section 5.11.) ([1]; listed as pyronaridine): hygroscopic; Dissolution levels in FaSSIF pH 6.5 ([2]; 5 min, listed as Pyronaridine (tetraphosphate salt, prior art form)): 501.4 µg/mL; Dissolution levels in FaSSIF pH 6.5 ([2]; 15 min, listed as Pyronaridine (tetraphosphate salt, prior art form)): 501.9 µg/mL; Dissolution levels in FaSSIF pH 6.5 ([2]; 60 min, listed as Pyronaridine (tetraphosphate salt, prior art form)): 501.3 µg/mL; Dissolution levels in FaSSIF pH 6.5 ([2]; 120 min, listed as Pyronaridine (tetraphosphate salt, prior art form)): 491.3 µg/mL |

From patent US20230295156A1, “CRYSTALLINE FORMS OF 4-[(7-CHLORO-2-METHOXYBENZO[B][1,5]NAPHTHYRIDIN-10-YL)AMINO]-2,6-BIS(PYRROLIDIN-1-YLMETHYL)PHENOL AND SALTS THEREOF” (Merck Patent GmbH, priority 2020, published 2023)
